PMC12514245, “Impaired migration and lung invasion of human melanoma by a novel small molecule targeting the transmembrane domain of death receptor p75^NTR” (EMBO Molecular Medicine, 2025)
Where “and” joins values, the source holds several entries; their conditions need not be identical. Equal values may be shown once.

Key:
[1] = system: A875 NT cells; assay: Boyden chamber chemotaxis/invasion assay, A875 NT; format: cell-based, human; conditions: for Fold change - invading cells, Mean / Fold change - invading cells, individual replicates: 1μM
Method: For Boyden chamber assay, Corning® BioCoat™ Matrigel® Invasion Chambers 8.0 µm PET Membrane were used (cat. no. 354480). A875 NT or WM115 cells were serum-starved for 16 h and then seeded at 60,000 cells per well in serum-free media under different conditions, including DMSO (vehicle) or small molecules Div17E5 or Np75-4A22 at different concentrations to the top chamber of the Matrigel-coated trans-well chamber. The pan-caspase inhibitor Q_VD_poH (at 5 µM) was also introduced in the top chamber in some experiments. Two different chemoattractants, NGF (at 50 ng/ml or 100 ng/ml as indicated) or 10% FBS were added to the bottom chamber. Assays were carried out for 8 h after which filters were fixed in 4% PFA and stained with DAPI. Cells that had remained on the top of the filter were gently scrapped away with a cotton tip. The filter lower side was imaged on an inverted fluorescence microscope and counted using ImageJ software (NIH).

[2] = mouse, in vivo
[3] = system: A875-NT melanoma xenograft; assay: Melanoma lung invasion assay, A875-NT, delayed treatment 3 weeks after cell injection; format: in vivo, SCID mice
Method: Finally, we investigated whether delayed administration of Np75-4A22 was able to affect engraftment and growth of metastatic tumors in the lung. To this end, drug treatment (orally at 200 mg/kg) was initiated 3 weeks after intravenous injection of A875-NT or A875-shp75 cells in female SCID mice and continued for additionally 4 weekly cycles (5 days on/2 days off) as above (Fig. 8E). Metastatic spread to the lungs was monitored weekly by bioluminescent imaging of luciferase-expressing melanoma cells. […] We conclude that Np75-4A22 can be efficacious at reducing the spread and seeding of melanoma cells in the lung when administered either before or after cell implantation.
Eight-week-old female SCID mice (Charles River Laboratories, Shrewsbury, MA, USA) were housed in groups of three to five and maintained on a 12-h light/dark schedule with a temperature of 22 °C ± 1 °C and a relative humidity of 50% ± 5%. Food and water were available ad libitum. This research study was reviewed and approved by the University of Calgary Animal Care Committee (AC22-0054) and McGill University (AUP-JGH-8269) and adheres to established ethical principles and guidelines. A875-GFPLuc (A875-NT) or A875-GFPLuc shp75 (A875-shp75) cells harvested using Puck’s EDTA were resuspended in PBS and injected intravenously into SCID mice (5 × 10^5 cells/200 μl per mouse). Np75-4A22 was dissolved in 0.5% sodium carboxymethyl cellulose (NaCMC) in reverse osmosis H2O and administered by oral gavage at 200 mg/kg/day starting one day prior to intravenous (tail vein) injection of tumor cells and continued for 3 1-week cycles (cycle: 5 days on drug, 2 days off drug). Tumor spread to the lung was monitored weekly by luciferase activity using the Xenogen IVIS-200 Optical in vivo luciferase imaging system as described previously (Lun et al, [2016]) and by immunohistochemistry (IHC) at designated time points. IHC was performed after formalin fixation, paraffin embedding and sectioning of the lungs, using a human-specific mouse polyclonal nucleolin antibody (1:500 dilution) and detected using Dako liquid DAB+ Substrate Chromogen System (Dako: k3468, California, USA) followed by a hematoxylin counterstain (Sigma, Oakville, ON, Canada). Sections were mounted and imaged on an Olympus phase contrast microscope (Olympus Life Science, Tokyo, Japan). For immunofluorescence, sections were stained with anti-human nucleolin and anti-human p75NTR antibodies (1:1000 dilution), subsequently detected with 1:200 dilutions of Alexa Fluor™ 488 Goat anti-Mouse IgG (H + L) Highly Cross-Adsorbed Secondary Antibody and Alexa Fluor™ 568 Goat anti-Rabbit IgG (H + L) Cross-Adsorbed Secondary Antibody. Sections were further stained with DAPI to detect all nuclei. Between each treatment, TBS Automation Wash Buffer (Biocare Medical TWB945M) was employed. Images were taken with LSM800 confocal microscope and ZEN system.

Cc1cccc(-c2cncc(Nc3ccc(Br)c(Cl)c3Cl)n2)c1C [Np75-4A22]
INVADING CELLS Average ([1]; 0.5μM, NGF (50 ng/ml)): 217.00 | INVADING CELLS Fold Average ([1]; 0.5μM, NGF (50 ng/ml)): 1.60 Fold | INVADING CELLS Fold change ([1]; 0.5μM, NGF (50 ng/ml)): 1.65 Fold and 1.68 Fold and 1.46 Fold | INVADING CELLS count ([1]; 0.5μM, NGF (50 ng/ml)): 224 and 229 and 198 | INVADING CELLS Average ([1]; 0.5μM, No NGF): 115.33 | INVADING CELLS Fold Average ([1]; 0.5μM, No NGF): 0.85 Fold | INVADING CELLS Fold change ([1]; 0.5μM, No NGF): 0.82 Fold and 0.92 Fold and 0.80 Fold | INVADING CELLS count ([1]; 0.5μM, No NGF): 112 and 125 and 109 | INVADING CELLS Average ([1]; 0.75μM, NGF (50 ng/ml)): 161.00 | INVADING CELLS Fold Average ([1]; 0.75μM, NGF (50 ng/ml)): 1.18 Fold | INVADING CELLS Fold change ([1]; 0.75μM, NGF (50 ng/ml)): 1.31 Fold and 1.11 Fold and 1.13 Fold | INVADING CELLS count ([1]; 0.75μM, NGF (50 ng/ml)): 178 and 151 and 154 | INVADING CELLS Average ([1]; 0.75μM, No NGF): 131.00 | INVADING CELLS Fold Average ([1]; 0.75μM, No NGF): 0.96 Fold | INVADING CELLS Fold change ([1]; 0.75μM, No NGF): 0.99 Fold and 1.01 Fold and 0.90 Fold | INVADING CELLS count ([1]; 0.75μM, No NGF): 134 and 137 and 122 | Fold change - invading cells, Mean ([1]; NGF): 1.46 | Fold change - invading cells, individual replicates ([1]; NGF): 1.24 and 1.52 and 1.63 | Fold change - invading cells, Mean ([1]; no NGF): 0.96 | Fold change - invading cells, individual replicates ([1]; no NGF): 1.22 and 0.88 and 0.78 | NGF activity in Boyden chamber assay of cell chemotaxis ([1]; 1 μM, NGF 50 ng/ml): blocked all NGF activity | NGF-induced A875 chemotaxis ([1]; submicromolar concentrations, NGF 50 ng/ml): significantly reducing | single dose toxicity [2]: No mortality or abnormal clinical signs | Average Photons/second/week, wk2 ([3]; A875-NT, group average, wk2): 7.77E+04 Photons/second | Average Photons/second/week, wk3 ([3]; A875-NT, group average, wk3): 1.89E+05 Photons/second | Average Photons/second/week, wk4 ([3]; A875-NT, group average, wk4): 1.70E+05 Photons/second | Average Photons/second/week, wk5 ([3]; A875-NT, group average, wk5): 3.04E+05 Photons/second | Average Photons/second/week, wk6 ([3]; A875-NT, group average, wk6): 8.45E+05 Photons/second | Average Photons/second/week, wk7 ([3]; A875-NT, group average, wk7): 3.17E+06 Photons/second | Photons/second/ mouse/week, wk2 ([3]; A875-NT, individual mouse, wk2): 7.00E+04 Photons/second and 7.88E+04 Photons/second and 6.89E+04 Photons/second and 1.01E+05 Photons/second and 8.02E+04 Photons/second and 7.86E+04 Photons/second and 8.67E+04 Photons/second and 5.74E+04 Photons/second | Photons/second/ mouse/week, wk3 ([3]; A875-NT, individual mouse, wk3): 1.59E+05 Photons/second and 1.50E+05 Photons/second and 1.97E+05 Photons/second and 3.40E+05 Photons/second and 2.35E+05 Photons/second and 1.26E+05 Photons/second and 1.46E+05 Photons/second | Photons/second/ mouse/week, wk4 ([3]; A875-NT, individual mouse, wk4): 1.44E+05 Photons/second and 1.39E+05 Photons/second and 1.26E+05 Photons/second and 1.15E+05 Photons/second and 2.32E+05 Photons/second and 2.12E+05 Photons/second and 2.11E+05 Photons/second and 1.82E+05 Photons/second | Photons/second/ mouse/week, wk5 ([3]; A875-NT, individual mouse, wk5): 2.30E+05 Photons/second and 1.68E+05 Photons/second and 2.24E+05 Photons/second and 7.71E+05 Photons/second and 3.62E+05 Photons/second and 2.51E+05 Photons/second and 2.06E+05 Photons/second and 2.23E+05 Photons/second | Photons/second/ mouse/week, wk6 ([3]; A875-NT, individual mouse, wk6): 1.70E+05 Photons/second and 6.38E+04 Photons/second and 3.70E+05 Photons/second and 3.16E+06 Photons/second and 2.58E+06 Photons/second and 1.54E+05 Photons/second and 1.46E+05 Photons/second and 1.19E+05 Photons/second | Photons/second/ mouse/week, wk7 ([3]; A875-NT, individual mouse, wk7): 5.60E+05 Photons/second and 5.09E+05 Photons/second and 3.70E+06 Photons/second and 1.34E+07 Photons/second and 6.38E+06 Photons/second and 2.75E+05 Photons/second and 2.70E+05 Photons/second and 2.40E+05 Photons/second | lung tumors (bioluminescent imaging), delayed treatment ([3]; oral 200 mg/kg, started 3 weeks after cell injection, 4 weekly cycles): reducing A875-NT lung tumors to very low levels
